Publication PMC10158552 (Biomedicine & Pharmacotherapy, 2023)

Tested on: SARS-CoV-2 Delta
Format: cell-based
Conditions: 346 µM compounds, 480 µg/ml antibodies

| Substance | viral replication of SARS-CoV-2, basal treatment |
| --- | --- |
| Casirivimab: monoclonal Ab administered intravenously in patients, used as positive control (Roche) | show an antiviral effect |
| Imdevimab: monoclonal Ab administered intravenously in patients, used as positive control (Roche) | show an antiviral effect |
